# Assays:
# [1] = In vivo pharmacokinetic studies in dogs; details: for acute toxicity and fatality in vivo: PK study
# Experimental: All experiments were approved by the Animal Research Committee for Animal Experimentation of Toho University (No. 12-52-151) and performed in accordance with the Guidelines for the Care and Use of Laboratory Animals of Toho University. […] Plasma samples were stored at −80° C. and thawed in ice before use.
# Ice cold NDEA internal standard (IS) solution was used for protein precipitation at a plasma:IS ratio of 1:3. The mixture was vortex-mixed for 1 min, followed by centrifugation at 14,000 g at 4° C. for 15 min. The supernatant was then transferred into a vial for LC/MS/MS analysis.
# The LC/MS/MS system consisted of Infinity ultra-high-pressure liquid chromatography (UHPLC) system (Agilent Technologies Inc., Santa Clara, Calif.) with the AB SCIEX QTRAP® 5500 tandem mass spectrometry (MS/MS) system (AB SCIEX, Framingham, Mass.). MultiQuant software version 1.4.0.18067 (Applied Biosystems) was used to perform all chromatographic peak integration.
# Chromatographic separation was performed using ACQUITY UPLC BEH C18 column, 1.7 μm, 2.1×50 mm (Waters, Milford, Mass.), with a gradient elution programme. The mobile phases were 0.2% acetic acid in 5 mM ammonium acetate in water (A) and 0.2% acetic acid in ACN (B). The elution conditions were linear gradient 30-95% B (0-1.60 min), isocratic at 95% B (1.61-1.99 min), and isocratic at 30% B (2.00-2.50 min). Multiple reaction monitoring (MRM) transitions were optimized for NDEA (internal standard, IS), dronedarone and poyendarone.
# Individual pharmacokinetic parameters were estimated using NCA for IV bolus data (Model 201), using WinNonlin® (Pharsight, USA). […] Data points included in the calculation of Lambda Z (Az) were first determined by WinNonlin®, and then visually assessed and modified accordingly. Other parameters calculated include apparent total plasma clearance (CL), apparent volume of distribution based on terminal phase (Vz), apparent elimination half-life (T1/2), apparent volume at steady state (Vss), mean residence time (MRT) and MRT extrapolated to infinity (MRTinf). […]
# [2] = Metabolic stability (substrate depletion) with HLM; assay type: in vitro ADME, human; details: for elimination rate constant k by HLM / half-life at 1 μM: 1 μM substrate, HLM 0.5 mg/mL; for half-life at 1 μM / microsomal CLint at 1 μM: human, pooled human liver microsomes, pH 7.4; for half-life at 1 μM: read-out: T1/2 by HLM; for microsomal CLint at 1 μM: substrate depletion, read-out: Intrinsic clearance, CLint HLM
# Experimental: The metabolic stability experiments were performed to derive intrinsic clearance (CLint) values via the substrate depletion method. […] NADPH A was subsequently added to initiate the reaction. […] The reaction mixtures were incubated at 37° C. with gentle agitation. At the respective time points (0-60 min), 80 μL of the reaction mixture was quenched using an equal volume of ice-cold ACN with 1 μM tamoxifen as internal standard (IS). The samples were then centrifuged at 3220 g at 4° C. for 30 min before transferring the supernatant to a 96-well plate for liquid chromatography-tandem mass spectrometry (LC-MS/MS) analysis.
# The mean of triplicate peak area ratios for each compound was normalized to that of the same compound at the 0 min time point to obtain the percentage of substrate remaining at each time point. This was plotted against incubation time for each compound and the data was then fitted to a one-phase decay model using GraphPad Prism software (version 8.02; GraphPad Inc., San Diego, Calif.) to obtain an estimation for the elimination rate constant (k). CLint was then calculated based on equation 3:
# In equation 3, k=elimination rate constant (min^−1); V=volume of incubation mixture (mL); P=amount of protein in mixture (mg).
# [3] = biological target: T1, CYP3A4 (Homo sapiens, UniProt P08684); assay: Time- and concentration-dependent inactivation of CYP3A4, rivaroxaban probe; assay type: in vitro ADME; details: for KI (inactivation): human, recombinant CYP3A4, pH 7.4, probe rivaroxaban (50 μM), in vitro data obtained, rivaroxaban probe, read-out: Mechanism-based inactivation KI CYP3A4
# T1 construct: purchased BD Gentest (Woburn, Mass.)
# Experimental: Incubations were conducted in triplicates in 96-well plates. Primary incubation mixtures comprising various concentrations of inhibitor (0-20 μM) were pre-incubated at 37° C. for 3 min with CYP3A4 or CYP3A5 (20 pmol/mL) and NADPH B in potassium phosphate buffer (100 mM, pH 7.4). To initiate the enzymatic reaction, 5 μL NADPH A was added to the primary incubation. The final primary incubation mixture volume was 100 μL and contained <1% v/v organic solvent. At different pre-incubation time points (3, 8, 15, 22, 30, and 45 min) after the addition of NADPH A, 5 μL aliquots of the primary incubation were transferred to 95 μL of the secondary incubation containing 50 μM rivaroxaban, the NADPH A and B, and potassium phosphate buffer (100 mM, pH 7.4) to yield a 20-fold dilution. The secondary incubation mixtures were incubated at 37° C. for 2 h with CYP3A4 or CYP3A5 before 80 μL aliquots were removed and quenched with an equal volume of ice-cold ACN containing 4 μM dexamethasone as IS. The samples were then centrifuged at 3220 g at 4° C. for 30 min before transferring the supernatant to a 96-well plate for liquid chromatography-tandem mass spectrometry (LC-MS/MS) analysis. The main rivaroxaban metabolite, morpholinone hydroxylated metabolite, was quantified using LC-MS/MS analysis.
# The mean of triplicate peak area ratios for each inhibitor concentration and pre-incubation time was normalized to that of 0 μM inhibitor with the same pre-incubation time. The amount of rivaroxaban metabolite formed during the secondary incubation, a measure of the probe substrate activity remaining, was computed and the natural logarithm of this measure was plotted against inactivation pre-incubation time for each inactivator concentration. For each concentration, the data was then fitted to a linear regression model, through which kobs (apparent inactivation rate constant) was obtained as the negative gradient of the linear regression. […]
# T1 sequence (P08684 whole entry): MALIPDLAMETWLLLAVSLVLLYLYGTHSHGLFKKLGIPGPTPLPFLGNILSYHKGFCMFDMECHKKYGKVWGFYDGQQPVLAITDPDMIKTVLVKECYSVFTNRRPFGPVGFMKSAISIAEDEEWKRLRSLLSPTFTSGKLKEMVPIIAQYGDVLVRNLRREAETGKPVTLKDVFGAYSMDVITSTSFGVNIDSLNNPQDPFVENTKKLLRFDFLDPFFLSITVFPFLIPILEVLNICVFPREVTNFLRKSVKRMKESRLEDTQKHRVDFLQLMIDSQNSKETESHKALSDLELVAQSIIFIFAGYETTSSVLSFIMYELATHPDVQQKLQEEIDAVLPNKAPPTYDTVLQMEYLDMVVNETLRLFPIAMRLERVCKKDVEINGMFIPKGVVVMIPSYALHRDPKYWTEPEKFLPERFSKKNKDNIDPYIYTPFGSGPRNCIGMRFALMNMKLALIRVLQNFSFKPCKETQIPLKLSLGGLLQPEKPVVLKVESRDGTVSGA
SMILES,acute toxicity and fatality in vivo [1],elimination rate constant k by HLM [2],half-life at 1 μM [2],microsomal CLint at 1 μM [2],KI (inactivation) [3],MBI potency against CYP3A4 ([3]; rivaroxaban probe substrate),"plasma disposition profile, clearance and volume of distribution compared between poyendarone and dronedarone ([1]; 3.0 mg/kg IV bolus, 3 mg/kg)"
CCCCc1oc2ccc(NS(C)(=O)=O)cc2c1C(=O)c1ccc(OCCCN(CCCC)CCCC)cc1.Cl [Dronedarone],No acute toxicity nor fatality,0.06446 min⁻¹,10.8 min,129 µL/min/mg,5.3 µM,0.00505 AV min^−1,–
"Cl.[2H]c1c(NS(C)(=O)=O)c([2H])c2c(C(=O)c3ccc(OCCCN(CCCC)CCCC)cc3)c(CCCC)oc2c1[2H] [Poyendarone, Methanesulfonamide, N-(2-butyl-3-(4-(3-(dibutylamino)propoxy)benzoyl)-1-benzo(4,6,7-d3)-furan-5-yl)hydrochloride]",No acute toxicity nor fatality,0.06472 min⁻¹,10.7 min,129 µL/min/mg,3.19 µM,–,comparable

# — patent US20220267288A1, “CARDIAC THERAPEUTIC” (priority 2019, published 2022)
